# Reference: the NIST ThermoML archive (doi:10.1016/j.jct.2016.10.023)
# Numbers after ± are expanded uncertainties.
# Assay: xn = mol fraction of the nth substance listed
# Settings: Constant-volume piezometry
smiles,measurement,setting,value
CCCCC [pentane] + CCCO,mass density,"493.15 K, 18923 kPa, Fluid (supercritical or subcritical phases), x1 = 0.8",467.52 ± 2.4 kg/m3
same,mass density,"493.15 K, 23193 kPa, Fluid (supercritical or subcritical phases), x1 = 0.5",520.3 ± 2.6 kg/m3
same,mass density,"493.15 K, 26040 kPa, Liquid, x1 = 0.2",582.45 ± 1.2 kg/m3
same,mass density,"493.15 K, 27225 kPa, Fluid (supercritical or subcritical phases), x1 = 0.8",497.01 ± 2.5 kg/m3
same,mass density,"493.15 K, 32486 kPa, Fluid (supercritical or subcritical phases), x1 = 0.5",549.21 ± 2.8 kg/m3
same,mass density,"493.15 K, 32782 kPa, Liquid, x1 = 0.2",596.07 ± 1.2 kg/m3
same,mass density,"493.15 K, 37919 kPa, Fluid (supercritical or subcritical phases), x1 = 0.8",521.58 ± 2.6 kg/m3
same,mass density,"493.15 K, 43289 kPa, Liquid, x1 = 0.2",615.49 ± 1.3 kg/m3
same,mass density,"493.15 K, Liquid, x1 = 0.5",260.13 ± 1.6 kg/m3
same,mass density,"494.15 K, 4206 kPa, Gas, x1 = 0.5",154.71 ± 0.71 kg/m3
same,mass density,"494.15 K, 4318 kPa, Gas, x1 = 0.5",183.11 ± 0.78 kg/m3
same,mass density,"494.15 K, 4366 kPa, Fluid (supercritical or subcritical phases), x1 = 0.5",251.05 ± 1.3 kg/m3
same,mass density,"498.15 K, 4515 kPa, Fluid (supercritical or subcritical phases), x1 = 0.5",183.07 ± 1.1 kg/m3
same,mass density,"498.15 K, 4637 kPa, Fluid (supercritical or subcritical phases), x1 = 0.5",251 ± 1.5 kg/m3
same,mass density,"498.15 K, 4641 kPa, Fluid (supercritical or subcritical phases), x1 = 0.5",260.06 ± 1.6 kg/m3
same,mass density,"502.95 K, Liquid, x1 = 0.2",419.16 ± 2.5 kg/m3
same,mass density,"503.15 K, 912 kPa, Gas, x1 = 0.5",15.53 ± 0.05 kg/m3
same,mass density,"503.15 K, 1255 kPa, Gas, x1 = 0.8",22.55 ± 0.07 kg/m3
same,mass density,"503.15 K, 1464 kPa, Gas, x1 = 0.2",24.95 ± 0.08 kg/m3
same,mass density,"503.15 K, 1642 kPa, Gas, x1 = 0.5",30.01 ± 0.09 kg/m3
same,mass density,"503.15 K, 1866 kPa, Gas, x1 = 0.8",36.72 ± 0.11 kg/m3
same,mass density,"503.15 K, 2163 kPa, Gas, x1 = 0.5",40.52 ± 0.13 kg/m3
same,mass density,"503.15 K, 2523 kPa, Gas, x1 = 0.5",51.14 ± 0.16 kg/m3
same,mass density,"503.15 K, 2701 kPa, Gas, x1 = 0.8",58.47 ± 0.18 kg/m3
same,mass density,"503.15 K, 2838 kPa, Gas, x1 = 0.2",53.06 ± 0.17 kg/m3
same,mass density,"503.15 K, 3137 kPa, Gas, x1 = 0.5",67.58 ± 0.21 kg/m3
same,mass density,"503.15 K, 3169 kPa, Gas, x1 = 0.8",73.86 ± 0.23 kg/m3
same,mass density,"503.15 K, 3305 kPa, Gas, x1 = 0.5",72.67 ± 0.23 kg/m3
same,mass density,"503.15 K, 3338 kPa, Gas, x1 = 0.9",83.46 ± 0.26 kg/m3
same,mass density,"503.15 K, 3585 kPa, Gas, x1 = 0.2",91.5 ± 0.29 kg/m3
same,mass density,"503.15 K, 3654 kPa, Gas, x1 = 0.5",88.99 ± 0.28 kg/m3
same,mass density,"503.15 K, 3800 kPa, Gas, x1 = 0.5",95.94 ± 0.31 kg/m3
same,mass density,"503.15 K, 3948 kPa, Fluid (supercritical or subcritical phases), x1 = 0.8",106.5 ± 0.54 kg/m3
same,mass density,"503.15 K, 4106 kPa, Fluid (supercritical or subcritical phases), x1 = 0.9",123.46 ± 0.63 kg/m3
same,mass density,"503.15 K, 4150 kPa, Liquid, x1 = 0.2",419.16 ± 0.86 kg/m3
same,mass density,"503.15 K, 4247 kPa, Fluid (supercritical or subcritical phases), x1 = 0.5",122.01 ± 0.68 kg/m3
same,mass density,"503.15 K, 4264 kPa, Fluid (supercritical or subcritical phases), x1 = 0.9",134.25 ± 0.69 kg/m3
same,mass density,"503.15 K, 4466 kPa, Fluid (supercritical or subcritical phases), x1 = 0.5",144.25 ± 0.77 kg/m3
same,mass density,"503.15 K, 4546 kPa, Fluid (supercritical or subcritical phases), x1 = 0.8",140.44 ± 0.76 kg/m3
same,mass density,"503.15 K, 4573 kPa, Fluid (supercritical or subcritical phases), x1 = 0.5",154.64 ± 0.82 kg/m3
same,mass density,"503.15 K, 4621 kPa, Fluid (supercritical or subcritical phases), x1 = 0.9",164.11 ± 0.85 kg/m3
same,mass density,"503.15 K, 4653 kPa, Fluid (supercritical or subcritical phases), x1 = 0.5",165.3 ± 0.89 kg/m3
same,mass density,"503.15 K, 4689 kPa, Fluid (supercritical or subcritical phases), x1 = 0.8",156.19 ± 0.83 kg/m3
same,mass density,"503.15 K, 4764 kPa, Fluid (supercritical or subcritical phases), x1 = 0.5",183.03 ± 0.99 kg/m3
same,mass density,"503.15 K, 4818 kPa, Fluid (supercritical or subcritical phases), x1 = 0.8",169.95 ± 0.91 kg/m3
same,mass density,"503.15 K, 4821 kPa, Fluid (supercritical or subcritical phases), x1 = 0.5",200.59 ± 1.1 kg/m3
same,mass density,"503.15 K, 4859 kPa, Fluid (supercritical or subcritical phases), x1 = 0.9",189.64 ± 0.99 kg/m3
same,mass density,"503.15 K, 4864 kPa, Fluid (supercritical or subcritical phases), x1 = 0.5",210.43 ± 1.1 kg/m3
same,mass density,"503.15 K, 4865 kPa, Fluid (supercritical or subcritical phases), x1 = 0.8",176.2 ± 0.93 kg/m3
same,mass density,"503.15 K, 4895 kPa, Fluid (supercritical or subcritical phases), x1 = 0.5",224.27 ± 1.2 kg/m3
same,mass density,"503.15 K, 4924 kPa, Fluid (supercritical or subcritical phases), x1 = 0.8",181 ± 0.96 kg/m3
same,mass density,"503.15 K, 4956 kPa, Fluid (supercritical or subcritical phases), x1 = 0.5",241.74 ± 1.3 kg/m3
same,mass density,"503.15 K, 4976 kPa, Fluid (supercritical or subcritical phases), x1 = 0.5",250.94 ± 1.3 kg/m3
same,mass density,"503.15 K, 4988 kPa, Fluid (supercritical or subcritical phases), x1 = 0.9",202.57 ± 1.1 kg/m3
same,mass density,"503.15 K, 4993 kPa, Fluid (supercritical or subcritical phases), x1 = 0.5",260 ± 1.4 kg/m3
same,mass density,"503.15 K, 5013 kPa, Fluid (supercritical or subcritical phases), x1 = 0.8",193.35 ± 1 kg/m3
same,mass density,"503.15 K, 5023 kPa, Fluid (supercritical or subcritical phases), x1 = 0.5",270.83 ± 1.4 kg/m3
same,mass density,"503.15 K, 5099 kPa, Fluid (supercritical or subcritical phases), x1 = 0.5",282.66 ± 1.5 kg/m3
same,mass density,"503.15 K, 5158 kPa, Fluid (supercritical or subcritical phases), x1 = 0.9",220.9 ± 1.2 kg/m3
same,mass density,"503.15 K, 5187 kPa, Fluid (supercritical or subcritical phases), x1 = 0.8",214.06 ± 1.1 kg/m3
same,mass density,"503.15 K, 5234 kPa, Fluid (supercritical or subcritical phases), x1 = 0.8",219.83 ± 1.2 kg/m3
same,mass density,"503.15 K, 5246 kPa, Fluid (supercritical or subcritical phases), x1 = 0.5",298.97 ± 1.6 kg/m3
same,mass density,"503.15 K, 5287 kPa, Fluid (supercritical or subcritical phases), x1 = 0.9",233.29 ± 1.2 kg/m3
same,mass density,"503.15 K, 5320 kPa, Fluid (supercritical or subcritical phases), x1 = 0.9",236.76 ± 1.2 kg/m3
same,mass density,"503.15 K, 5356 kPa, Fluid (supercritical or subcritical phases), x1 = 0.9",241.17 ± 1.2 kg/m3
same,mass density,"503.15 K, 5385 kPa, Fluid (supercritical or subcritical phases), x1 = 0.9",244.48 ± 1.3 kg/m3
same,mass density,"503.15 K, 5390 kPa, Fluid (supercritical or subcritical phases), x1 = 0.8",234.94 ± 1.2 kg/m3
same,mass density,"503.15 K, 5482 kPa, Fluid (supercritical or subcritical phases), x1 = 0.8",245.58 ± 1.2 kg/m3
same,mass density,"503.15 K, 5510 kPa, Fluid (supercritical or subcritical phases), x1 = 0.5",320.32 ± 1.6 kg/m3
same,mass density,"503.15 K, 5579 kPa, Fluid (supercritical or subcritical phases), x1 = 0.5",325.6 ± 1.7 kg/m3
same,mass density,"503.15 K, 5611 kPa, Fluid (supercritical or subcritical phases), x1 = 0.8",258.82 ± 1.4 kg/m3
same,mass density,"503.15 K, 5786 kPa, Fluid (supercritical or subcritical phases), x1 = 0.9",282.29 ± 1.4 kg/m3
same,mass density,"503.15 K, 5797 kPa, Fluid (supercritical or subcritical phases), x1 = 0.8",272.8 ± 1.4 kg/m3
same,mass density,"503.15 K, 5864 kPa, Fluid (supercritical or subcritical phases), x1 = 0.5",344.91 ± 1.7 kg/m3
